From patent US20100168079A1 (priority 2008, published 2010)

biological target: T1, human S1P1 receptors (Homo sapiens, UniProt P21453); assay: Human S1P1 Receptor Calcium FLIPR Antagonist Assay (HeLa Gα16 S1P1); assay type: cell-based; conditions: relative antagonism of Ca2+ signal evoked by probing agonist GNF-AC-1 at EC80; HeLa-S1P1/Gα16 cells
T1 construct: myc (N); expressed in transfected cells; host or cells: HeLa (human cervix carcinoma, ATCC CCL2), HeLa-S1P1/Gα16 cell clone 1
Description: Human S1P1 Receptor Calcium FLIPR Antagonist Assay
The cells are plated in 384 well black plates (10′000 cells per well). […] After washing, the cells are transferred to the FLIPR. The test compounds are added at different concentrations […]) in HBSS in the presence of 0.1% BSA and changes in fluorescence are recorded (indication of agonism). The probing agonist is added 20-30 minutes afterwards to the wells at a concentration giving 80% of the maximal activity (EC80). After each addition, time points are collected as follows: 20 time points (2 seconds) before the addition of the agonist (Fmin) and 60 time points (1 or 2 seconds) after the addition of the probing agonist. This allows the determination of the maximal fluorescence (Fmax). The ratio (Fmax-Fmin)/Fmin is plotted against the log of the concentration of the test compounds and the IC50 (relative antagonism) is calculated using the XLfit-4 software. […] A concentration-response curve of the probing agonist is determined on each plate in parallel.

T1 sequence (P21453 whole entry): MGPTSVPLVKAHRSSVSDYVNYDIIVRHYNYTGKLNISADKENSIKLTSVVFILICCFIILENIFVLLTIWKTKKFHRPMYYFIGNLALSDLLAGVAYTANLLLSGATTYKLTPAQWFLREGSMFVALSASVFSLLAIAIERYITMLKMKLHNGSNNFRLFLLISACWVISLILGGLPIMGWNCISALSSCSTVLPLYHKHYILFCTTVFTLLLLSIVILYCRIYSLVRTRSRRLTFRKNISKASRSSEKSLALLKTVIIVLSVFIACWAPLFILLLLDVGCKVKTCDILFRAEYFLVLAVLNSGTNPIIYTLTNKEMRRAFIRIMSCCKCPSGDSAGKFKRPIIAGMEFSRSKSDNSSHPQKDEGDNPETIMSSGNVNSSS

Q: How did the IC50 turn out when `COc1ccc(C(C)Nc2cccc(-c3cc(C)c(C(=O)N[C@@H](C)C(=O)O)c(C)c3)c2)cc1F` (stereo partly drawn) [Example 18, (S)-2-({3′-[1-(3-Fluoro-4-methoxy-phenyl)-ethylamino]-3,5-dimethyl-biphenyl-4-carbonyl}-amino)-propionic acid] was run?
A: The IC50 was 4 nM.

Q: For `CCC(Nc1cccc(-c2ccc(C(=O)N(C)[C@@H](C)C(=O)O)c(Cl)c2)c1)c1ccc(Cl)c(C)c1` (stereo partly drawn) [Example 61, (S)-2-({3-Chloro-3′-[1-(4-chloro-3-methyl-phenyl)-propylamino]-biphenyl-4-carbonyl}-methyl-amino)-propionic acid], which IC50 is on record?
A: The IC50 was 1 nM.

Q: Which IC50 does the source give for `COc1ccc(C(C)Nc2cccc(-c3cc(C)c(C(=O)N[C@@H](C)C(=O)O)c(C)c3)c2)c(F)c1` (stereo partly drawn) [Example 35, (S)-2-({3′-[1-(2-Fluoro-4-methoxy-phenyl)-ethylamino]-3,5-dimethyl-biphenyl-4-carbonyl}-amino)-propionic acid] here?
A: Its IC50 is 8 nM.

Q: With `CC[C@@H](Nc1cccc(-c2cc(C)c(C(=O)NC3(C(=O)O)CC3)c(C)c2)c1)c1cc(C)c(Cl)c(C)c1` [Example 102, 1-({3-[(R)-1-(4-Chloro-3,5-dimethyl-phenyl)-propylamino]-3,5-dimethyl-biphenyl-4-carbonyl}-amino)-cyclopropanecarboxylic acid] as the molecule, how does the IC50 read?
A: The IC50 was 1 nM.

Q: For `Cc1cc(C(C)(C)Nc2cccc(-c3ccc(C(=O)N(C)[C@@H](C)C(=O)O)c(Cl)c3)c2)ccc1Cl` [Example 98, (S)-2-({3-Chloro-3′-[1-(4-chloro-3-methyl-phenyl)-1-methyl-ethylamino]-biphenyl-4-carbonyl}-methyl-amino)-propionic acid], which IC50 is on record?
A: Its IC50 is 4 nM.

Q: Which IC50 does the source give for `CCc1cc(-c2cccc(NC(C)c3ccc(Cl)c(C)c3)c2)ccc1C(=O)N[C@@H](C)C(=O)O` (stereo partly drawn) [Example 42, (S)-2-({3′-[1-(4-Chloro-3-methyl-phenyl)-ethylamino]-3-ethyl-biphenyl-4-carbonyl}-amino)-propionic acid] here?
A: Its IC50 is 3 nM.

Q: How did the IC50 turn out when `Cc1cc(C(Nc2cccc(-c3ccc(C(=O)NC4(C(=O)O)CC4)c(Cl)c3)c2)C(F)(F)F)ccc1Cl` (centres unmarked) [Example 95, 1-({3-Chloro-3′-[1-(4-chloro-3-methyl-phenyl)-2,2,2-trifluoro-ethylamino]-biphenyl-4-carbonyl}-amino)-cyclopropanecarboxylic acid] was run?
A: The IC50 was 14 nM.

Q: Which IC50 does the source give for `Cc1cc(C(C)Nc2cccc(-c3ccc(C(=O)N(C)[C@@H](C)C(=O)O)c(F)c3)c2)ccc1Cl` (stereo partly drawn) [Example 49, (S)-2-({3′-[1-(4-Chloro-3-methyl-phenyl)-ethylamino]-3-fluoro-biphenyl-4-carbonyl}-methyl-amino)-propionic acid] here?
A: The IC50 was 3 nM.

Q: Which IC50 does the source give for `Cc1cc(C(C)Nc2cccc(-c3cc(C)c(C(=O)N[C@@H](CO)C(=O)O)c(C)c3)c2)ccc1Cl` (stereo partly drawn) [Example 21, (S)-2-({3′-[1-(4-Chloro-3-methyl-phenyl)-ethylamino]-3,5-dimethyl-biphenyl-4-carbonyl}-amino)-3-hydroxy-propionic acid] here?
A: The IC50 was 2 nM.

Q: With `CC[C@H](c1ccc(Cl)c(C)c1)N(C)c1ccc(F)c(-c2cc(C)c(C(=O)N[C@@H](C)C(=O)O)c(C)c2)c1` [Example 116, (S)-2-[(5′-{[(R)-1-(4-Chloro-3-methyl-phenyl)-propyl]-methyl-amino}-2′-fluoro-3,5-dimethyl-biphenyl-4-carbonyl)-amino]-propionic acid] as the molecule, how does the IC50 read?
A: The IC50 was 2 nM.

Q: `Cc1cc(C(C)Nc2cccc(-c3ccc(C(=O)N(C)[C@@H](C)C(=O)O)c(F)c3)c2)cc(C)c1Cl` (stereo partly drawn) [Example 55, (S)-2-({3′-[1-(4-Chloro-3,5-dimethyl-phenyl)-ethylamino]-3-fluoro-biphenyl-4-carbonyl}-methyl-amino)-propionic acid] was tested. Which IC50 did it give?
A: The IC50 was 9 nM.

Q: For `Cc1cc(C(C)Nc2cccc(-c3ccc(C(=O)N(C)[C@@H](C)C(=O)O)c(Cl)c3)c2)cc(C)c1Cl` (stereo partly drawn) [Example 53, (S)-2-({3-Chloro-3′-[1-(4-chloro-3,5-dimethyl-phenyl)-ethylamino]-biphenyl-4-carbonyl}-methyl-amino)-propionic acid], which IC50 is on record?
A: Its IC50 is 5 nM.

Q: `Cc1cc(C(C)Nc2cccc(-c3cc(C)c(C(=O)N[C@@H](CCCCN)C(=O)O)c(C)c3)c2)ccc1Cl` (stereo partly drawn) [Example 70, (S)-6-Amino-2-({3′-[1-(4-chloro-3-methyl-phenyl)-ethylamino]-3,5-dimethyl-biphenyl-4-carbonyl}-amino)-hexanoic acid] was tested. Which IC50 did it give?
A: The IC50 was 2 nM.

Q: `Cc1cc(C(C)(C)Nc2cccc(-c3ccc(C(=O)N[C@@H](C)C(=O)O)c(Cl)c3)c2)ccc1Cl` [Example 97, (S)-2-({3-Chloro-3′-[1-(4-chloro-3-methyl-phenyl)-1-methyl-ethylamino]-biphenyl-4-carbonyl}-amino)-propionic acid] was tested. Which IC50 did it give?
A: Its IC50 is 1 nM.

Q: For `Cc1cc(C(C)Nc2cccc(-c3cc(F)c(C(=O)N(C)[C@@H](C)C(=O)O)c(F)c3)c2)ccc1Cl` (stereo partly drawn) [Example 51, (S)-2-({3′-[1-(4-Chloro-3-methyl-phenyl)-ethylamino]-3,5-difluoro-biphenyl-4-carbonyl}-methyl-amino)-propionic acid], which IC50 is on record?
A: Its IC50 is 6 nM.

Q: `Cc1cc(C(C)Nc2cccc(-c3ccc(C(=O)N(C)[C@@H](C)C(=O)O)c(C)c3)c2)ccc1Cl` (some centres unmarked) [Example 76] was tested. Which IC50 did it give?
A: Its IC50 is 3 nM.

Q: `Cc1cc(C(Nc2cccc(-c3cc(C)c(C(=O)N[C@@H](C)C(=O)O)c(C)c3)c2)C(C)C)ccc1Cl` (stereo partly drawn) [Example 90, (S)-2-({3′-[1-(4-Chloro-3-methyl-phenyl)-2-methyl-propylamino]-3,5-dimethyl-biphenyl-4-carbonyl}-amino)-propionic acid] was tested. Which IC50 did it give?
A: Its IC50 is 10 nM.

Q: `Cc1cc(C(C)Nc2cccc(-c3ccc(C(=O)N[C@@H](C)C(=O)O)c(C(F)(F)F)c3)c2)ccc1Cl` (stereo partly drawn) [Example 62, (S)-2-({3′-[1-(4-Chloro-3-methyl-phenyl)-ethylamino]-3-trifluoromethyl-biphenyl-4-carbonyl}-amino)-propionic acid] was tested. Which IC50 did it give?
A: Its IC50 is 1 nM.

Q: For `Cc1cc([C@H](Nc2cccc(-c3ccc(C(=O)N(C)[C@@H](C)C(=O)O)c(Cl)c3)c2)C(F)(F)F)ccc1Cl` [Example 96, (S)-2-({3-Chloro-3′-[(S)-1-(4-chloro-3-methyl-phenyl)-2,2,2-trifluoro-ethylamino]-biphenyl-4-carbonyl}-methyl-amino)-propionic acid], which IC50 is on record?
A: Its IC50 is 2 nM.

Q: For `Cc1cc(C(C)Nc2cccc(-c3cc(C)c(C(=O)N[C@@H](C)C(=O)O)c(C)c3)c2)c(C)cc1Cl` (stereo partly drawn) [Example 13, (S)-2-({3′-[1-(4-Chloro-2,5-dimethyl-phenyl)-ethylamino]-3,5-dimethyl-biphenyl-4-carbonyl}-amino)-propionic acid], which IC50 is on record?
A: Its IC50 is 5 nM.

Q: For `Cc1cc(C(C)Nc2cccc(-c3ccc(C(=O)N[C@@H](C)C(=O)O)c(Cl)c3)c2)ccc1Cl` (stereo partly drawn) [Example 46, (S)-2-({3-Chloro-3′-[1-(4-chloro-3-methyl-phenyl)-ethylamino]-biphenyl-4-carbonyl}-amino)-propionic acid], which IC50 is on record?
A: Its IC50 is 2 nM.

Q: With `CCC(Nc1cccc(-c2ccc(C(=O)N(C)[C@@H](C)C(=O)O)c(C)c2)c1)c1ccc(Cl)c(C)c1` (stereo partly drawn) [Example 58, (S)-2-({3′-[1-(4-Chloro-3-methyl-phenyl)-propylamino]-3-methyl-biphenyl-4-carbonyl}-methyl-amino)-propionic acid] as the molecule, how does the IC50 read?
A: The IC50 was 2 nM.

Q: With `CCc1cc(-c2cccc(NC(C)c3cc(C)c(Cl)c(C)c3)c2)ccc1C(=O)N(C)[C@@H](C)C(=O)O` (stereo partly drawn) [Example 45, (S)-2-({3′-[1-(4-Chloro-3,5-dimethyl-phenyl)-ethylamino]-3-ethyl-biphenyl-4-carbonyl}-methyl-amino)-propionic acid] as the molecule, how does the IC50 read?
A: The IC50 was 5 nM.

Q: `CC[C@H](c1ccc(Cl)c(C)c1)N(C)c1cccc(-c2cc(C)c(C(=O)N[C@@H](C)C(=O)O)c(C)c2)c1` [Example 104, (S)-2-[(3′-{[(R)-1-(4-Chloro-3-methyl-phenyl)-propyl]-methyl-amino}-3,5-dimethyl-biphenyl-4-carbonyl)-amino]-propionic acid] was tested. Which IC50 did it give?
A: Its IC50 is 1 nM.

Q: `CCC(Nc1cccc(-c2ccc(C(=O)N[C@@H](C)C(=O)O)c(C(F)(F)F)c2)c1)c1ccc(Cl)c(C)c1` (stereo partly drawn) [Example 66, (S)-2-({3′-[1-(4-Chloro-3-methyl-phenyl)-propylamino]-3-trifluoromethyl-biphenyl-4-carbonyl}-amino)-propionic acid] was tested. Which IC50 did it give?
A: The IC50 was 3 nM.

Q: For `Cc1cc(C(C)Nc2cccc(-c3cc(C)c(C(=O)NCC(=O)O)c(C)c3)c2)ccc1Cl` (centres unmarked) [Example 68, ({3′-[1-(4-Chloro-3-methyl-phenyl)-ethylamino]-3,5-dimethyl-biphenyl-4-carbonyl}-amino)-acetic acid], which IC50 is on record?
A: Its IC50 is 1 nM.

Q: Which IC50 does the source give for `Cc1cc(-c2cccc(NC(C)c3ccc(Cl)c(F)c3)c2)cc(C)c1C(=O)N[C@@H](C)C(=O)O` (stereo partly drawn) [Example 9, (S)-2-({3′-[1-(4-Chloro-3-fluoro-phenyl)-ethylamino]-3,5-dimethyl-biphenyl-4-carbonyl}-amino)-propionic acid] here?
A: The IC50 was 3 nM.

Q: How did the IC50 turn out when `Cc1cc(C(C)Nc2cccc(-c3cc(F)c(C(=O)N(C)[C@@H](C)C(=O)O)c(F)c3)c2)cc(C)c1Cl` (stereo partly drawn) [Example 57, (S)-2-({3′-[1-(4-Chloro-3,5-dimethyl-phenyl)-ethylamino]-3,5-difluoro-biphenyl-4-carbonyl}-methyl-amino)-propionic acid] was run?
A: The IC50 was 6 nM.

Q: Which IC50 does the source give for `Cc1cc(C(Nc2cccc(-c3ccc(C(=O)N(C)[C@@H](C)C(=O)O)c(C(F)(F)F)c3)c2)C(F)(F)F)ccc1Cl` (stereo partly drawn) [Example 91, (S)-2-({3′-[1-(4-Chloro-3-methyl-phenyl)-2,2,2-trifluoro-ethylamino]-3-trifluoromethyl-biphenyl-4-carbonyl}-methyl-amino)-propionic acid] here?
A: The IC50 was 4 nM.
